As for `C#CCNC(=O)Oc1cc(-n2c(=O)cc(C(F)(F)F)n(C)c2=O)c(F)cc1Cl`, the melting point lay within 144 to 146 °C.

The compound `CC(=O)OC[C@](O)(CO)c1ccc(F)cc1F` registered a melting point of 52 to 53 °C.

As for `CCCOCc1nc(C(C)(C)O)c(C(=O)O)n1Cc1ccc(-c2ccccc2C(=O)O)cc1`, the melting point was 109 to 111 °C.

Turning to `CSc1cnc2c(-c3ccccc3)csc2c1O`, the melting point was in the range of 273 to 275 °C.

Consider `Cc1sc(-c2ccc(C#N)cc2)nc1O`, for which the melting point was in the range of 220 to 221 °C.

`CC(C)n1nc(-c2cnc(N)nc2-c2cccc(C(F)(F)F)c2)ccc1=O` returned a melting point of 164 to 165 °C.

`CC(C(C=Cc1ccc(Cl)cc1)OCc1ccc(Cl)cc1)n1cncn1` (stereo unspecified): the melting point came to 91 °C.

`C=Cc1cc(C(C)NC(=O)C#Cc2ccc(C(C)(C)C)cc2)cc(F)c1NS(C)(=O)=O` (stereo unspecified) showed a melting point of 108 to 110 °C.

For the compound `Cc1cccc(N=NC2=NCCS2)c1C`, the melting point is 74 to 79 °C.

With `Cc1noc(NC(=O)N2CCN(c3nc(-c4cccc(Cl)c4Cl)cs3)CC2)c1C`, the melting point fell in the range of 175 to 176 °C.

The compound `CC(C(=O)O)c1ccc2c(c1)oc1ccc(Cl)cc12` (single isomer, unassigned; (+)) returned a melting point of 155 to 157 °C.

With `COc1ccc2c(=O)cc(C(=O)N[C@H]3CCN(C(=O)c4cc(C(F)(F)F)cc(C(F)(F)F)c4)[C@H](Cc4ccc(Cl)cc4)C3)oc2c1`, the melting point was 198 to 200 °C.

Consider `COC(=O)Cn1c(=O)n(C)c(=O)n(-c2cc(F)ccc2[N+](=O)[O-])c1=O`, for which the melting point was 122 °C.

Turning to `O=c1c(Cl)c(OCc2ccc(F)cc2F)ccn1Cc1cccc2c1CCNC2`, the melting point is 180 to 184 °C.

`Cn1cnc(COc2ccc(-c3cc(-c4c[nH]nc4-c4ccccn4)ccn3)cc2)c1`: the melting point was 104 °C.

As for `CCc1cc(OC)c(S(C)(=O)=O)cc1C(=O)N=C(N)N`, the melting point was in the range of 192 to 195 °C.

Regarding `ClC1=NCc2c(-c3noc(C4CC4)n3)ncn2-c2ccc(Cl)cc21`, the melting point is 200 °C.

`O=C1OC(c2ccccc2)(c2ccc(-c3ccccc3)cc2)C(O)=C1OCc1ccccc1` (stereo unspecified) had a melting point of 190 to 195 °C.

Consider `CN1CCN(c2ccc(-c3[nH]nc4c3C(=O)c3c(NC(=O)NNC(=O)c5cccnc5)cccc3-4)cc2)CC1`, for which the melting point is 238 °C.

`COc1ccc(Oc2ccc3ccc(N)nc3n2)cc1` had a melting point of 200 °C.

The compound `Cc1ccc(C(=O)OC2CCN(Cc3ccccc3)CC2)cc1` returned a melting point of 73 to 74 °C.

Take `CCCn1c(=O)cc(NNC(=S)NC(C)=O)n(Cc2ccccc2)c1=O`: the melting point lay in the range of 184 to 185 °C.

On to `CCN1C2=C(C(=O)Nc3ccccc3F)C(=O)CCN2c2ccccc21`, for which the melting point was 142 to 143 °C.

In turn, `CNc1cc(C)ccc1C(C)=O` had a melting point of 47 °C.

Compound `CCCCn1c(=O)c2cn(S(C)(=O)=O)nc2n(CCCC)c1=O` displayed a melting point of 103 to 104 °C.

In the case of `CC(NC(=O)c1sc2ccc(C(F)(F)F)cc2c1O)C(O)(c1ccccc1)c1ccccc1` (stereo unspecified), the melting point was in the range of 129 to 130 °C.

Take `CCn1ncc(-c2ccc3c(c2)c(C2CCN(CCN4CCNC4=O)CC2)cn3-c2ccc(F)cc2)n1`: the melting point lay in the range of 173 to 175 °C.

On to `CCOC(=O)c1c(C)nn(-c2ccccn2)c1C`, for which the melting point is 49 to 50 °C.

In turn, `CC(C)OC(=O)Nc1ccc(NC=O)c([N+](=O)[O-])c1` came in with a melting point of 168 to 170 °C.

Compound `O=C(O)c1cc(CO)ccc1O` had a melting point of 108 to 110 °C.

In the case of `c1ccc2c(NCCCCNc3nccc4ccccc34)nccc2c1`, the melting point is 189 to 192 °C.

On to `Oc1ccc2c(c1O)OCC(c1ccc(F)cc1)C2` (stereo unspecified), for which the melting point is 166 to 168 °C.

Compound `CCOC(=O)CCC(=O)c1ccc(Cl)cc1O` had a melting point of 68 to 69 °C.

Consider `CC(OC(=O)ON=C(C#N)c1ccccc1)C1CC1` (stereo unspecified), for which the melting point lay in the range of 65 to 67 °C.

`COc1ccc(NCc2c(F)c(F)c(C(F)(F)F)c(F)c2F)cc1C(=O)O` gave a melting point of 94 °C.

In turn, `O=[S@@]1CCC(c2ccccc2)(c2ccccc2)[C@@H]2CNC[C@@H]21` (racemic) yielded a melting point of 192 °C.

Compound `CCCCc1nc2c(N)nc3cccnc3c2n1CCCCN` returned a melting point of 212 to 213 °C.

In the case of `COc1ccc(CCNC(=O)c2ccc3c(c2)C=CC(C)(C)O3)cc1`, the melting point fell in the range of 105 to 107 °C.

`Cc1cc(CCCCCOc2ccc(C3NCCS3)cc2)on1` (stereo unspecified) yielded a melting point of 82 to 84 °C.

For the compound `Cc1cccc(NC(=O)NCC(=O)N(c2ccccc2)C(C(=O)OC(C)(C)C)c2ccc(Cl)c(Cl)c2)c1` (racemic), the melting point amounted to 176 °C.

Consider `CC(O)C1C(=O)NC1CC(=O)OCc1ccccc1` (mixture of isomers), for which the melting point lay in the range of 67.5 to 68.5 °C.

`CN(Cc1cc2c3c(c1)c(=O)c(C(=O)NCc1ccc(F)cc1)cn3CC(=O)N2C)C[C@@H](O)c1cnccn1` showed a melting point of 108 to 110 °C.

In turn, `CC1(C)C(C=C(Br)Br)C1C(=O)OCc1cccc(Oc2ccccc2)c1` (stereo unspecified) came in with a melting point of 93 °C.

Compound `COc1cccc(C(O)c2cccc(C(F)(F)F)c2)c1` (stereo unspecified) displayed a melting point of 51 to 52 °C.

In the case of `CSc1ccc(Nc2nc(=O)cc(N)n2-c2ccccc2)cc1`, the melting point lay within 133 to 135 °C.

In turn, `COC(=O)/C=C/c1c(-c2ccc(F)cc2)c2ccccc2n1C(C)C` registered a melting point of 155 to 157 °C.

In turn, `CC(C)c1cc(OCC(=O)N(Cc2ccccc2)Cc2ccccc2)cc2c1C(=O)N(COC(=O)c1c(Cl)cccc1Cl)S2(=O)=O` gave a melting point of 110 to 112 °C.

Consider `O=C(Nc1ccc2nc(S)[nH]c2c1)C(=O)N1CCC(Cc2ccccc2)CC1`, for which the melting point lay in the range of 277 to 281 °C.

In turn, `CC(C)n1nc(-c2c(-c3ccccc3)nc(N)nc2N2CCCCC2)ccc1=O` showed a melting point of 221 to 223 °C.

`CC(=O)Oc1ccc(C(=O)NCCO[N+](=O)[O-])cc1` had a melting point of 95 to 97 °C.

On to `Cc1c(Cc2cccnc2)ccc2ccc(C(=O)O)cc12`, for which the melting point was 210 to 211 °C.

Take `CN(C)C(=S)Sc1cc(=O)n(Cc2ccccc2)s1`: the melting point was 184 to 186 °C.

Turning to `CC(C)n1nc(-c2c(-c3ccccc3)nn3ccc(OCc4ccncc4)cc23)ccc1=O`, the melting point fell in the range of 218 to 220 °C.

The compound `O=C1Nc2cc3c(cc2SC1CCCBr)OCO3` (stereo unspecified) registered a melting point of 168 to 169 °C.

Turning to `O=C(O)Cc1ccc(NC(=O)C(COc2ccccc2)NS(=O)(=O)c2ccc(Br)cc2)cc1` (racemic), the melting point lay in the range of 201 to 204 °C.

`Cc1c(C)c2c(c(C)c1O)CCC(C)(C(=O)N1CCC(c3ccc(N)cc3)CC1)O2` (stereo unspecified) registered a melting point of 153 to 154 °C.

On to `C[C@@H](CCC(=O)N[C@@H](Cc1ccccc1)C(=O)CSCc1ccco1)CNC(=O)COc1ccccc1`, for which the melting point was 91 to 95 °C.

Compound `CCOC(=O)C1(C)C(=O)Nc2cc3[nH]c(-c4cnccn4)nc3cc21` (stereo unspecified) showed a melting point of 288 to 290 °C.

Regarding `CC(=O)Nc1cccc(Br)n1`, the melting point came to 157 °C.

For `COc1cc2c(-c3ccc(Cl)cc3)csc2c(Cl)c1Cl`, the melting point lay within 190 to 191 °C.

The compound `O=c1[nH]c(N2CCN(CCCCN3CCCCC3)CC2)cc2c(Cl)cccc12` yielded a melting point of 172 to 173 °C.

With `CC1=NNC(=O)CC1c1ccc(OC2CCN(C(=O)OC(C)(C)C)CC2)cc1` (stereo unspecified), the melting point was in the range of 165 to 167 °C.

`CCCCCCCC(CCCCCCCCC(CCCCCCC)NC(C)=O)NC(C)=O` (stereo unspecified): the melting point fell in the range of 158 to 162 °C.

`COC(=O)c1cc2n(n1)-c1ccc(Cl)cc1C(c1ccccc1)NC2=O` (stereo unspecified) displayed a melting point of 236 to 238 °C.

`Cc1ccc(S(=O)(=O)O[C@H](Cc2ccccc2)C(=O)NCCc2ocnc2C(=O)OCc2ccccc2)cc1`: the melting point was in the range of 96 to 98 °C.

`CC(C)(C)OC(=O)N1CCC(c2nc3ccc(-c4ccc(S(C)(=O)=O)cc4F)cc3o2)CC1` displayed a melting point of 174 to 178 °C.

As for `N#Cc1ccc(C(F)(F)F)c(C(F)(F)F)c1`, the melting point lay within 71 to 72 °C.

Regarding `CC(C(=O)NCc1ccc(C(C)(C)C)cc1)c1ccc(NS(C)(=O)=O)c(F)c1` (stereo unspecified), the melting point lay in the range of 52 to 54 °C.

With `CCOc1nc(NC)nc(NC(=O)NS(=O)(=O)c2cccc3c2nnn3C)n1`, the melting point fell in the range of 203 to 209 °C.

Turning to `NC1=C(C(=O)c2ccc(Br)s2)C2=C(CCCC2)S1=O` (stereo unspecified), the melting point fell in the range of 160 to 163 °C.

`CC(C)OC(=O)C(C)Oc1ncn(-c2ccccc2)n1` (stereo unspecified) registered a melting point of 104 °C.

Take `CCN(CC)c1ccc(-c2ccc3c(c2)C=C(C(=O)Nc2ccc(CN(C)C4CCOCC4)cc2)CCN3C)cc1`: the melting point was in the range of 178 to 180 °C.

The compound `CC(C)(C)c1ccc(OCCCCCCN2CCN(c3nccs3)CC2)cc1` displayed a melting point of 30 to 32 °C.

With `Cc1ccc(S(=O)(=O)N2CCN([C@H](C)[C@](O)(Cn3cncn3)c3ccc(F)cc3F)CC2)cc1`, the melting point was in the range of 81 to 83 °C.

`Oc1cccc(-c2ncc3ncc(Cl)cc3n2)c1` showed a melting point of 252 to 253 °C.

Take `Cc1nnc2ccc(-c3cccc(NC(=O)N(C)C)c3)nn12`: the melting point fell in the range of 237 to 239 °C.

Turning to `CCOC(=O)Nc1ccc(OC)cc1C(C)=O`, the melting point was in the range of 97 to 100 °C.

In turn, `C=C(C)n1c(=O)n(CCN(C)Cc2ccccc2)c2ccccc21` gave a melting point of 107 to 109 °C.

`CCOC(=O)C(C)c1csc(=Nc2ccccc2)n1C` (stereo unspecified) yielded a melting point of 80 to 81 °C.

With `COC[C@@H](O)CN1CCC(c2ccc(-c3nc4c(N[C@H]5[C@@H](C(N)=O)[C@@H]6C=C[C@H]5C6)c(Cl)cnc4[nH]3)c(OC)c2)CC1`, the melting point lay within 189 to 191 °C.

For `COC(=O)c1nc(-c2ccccc2)n2c1CN=C(c1ccccc1Cl)c1cc(Cl)ccc1-2`, the melting point lay in the range of 272 to 275 °C.

The compound `CCc1nn2c(N3CCN(C)CC3)cc(OCCO)nc2c1S(=O)(=O)c1ccccc1` yielded a melting point of 153 to 154 °C.

Take `CN(c1cccc2cc(C3=NCC(CCN)S3)[nH]c12)S(=O)(=O)c1cccs1` (stereo unspecified): the melting point is 172 to 174 °C.

As to `CC(=O)Nc1nc2ccc(S(=O)(=O)n3c(CCC(=O)O)cc4cc(C(F)(F)F)ccc43)cc2s1`, the melting point is 290 to 292 °C.

For the compound `COc1cc(N)ccc1C(O)c1cc(C)ccn1` (stereo unspecified), the melting point fell in the range of 114 to 117 °C.

`CCN(CC)C(=O)Oc1nc(C)c2cc(OC)c(OC)cc2c1N`: the melting point lay in the range of 206 to 207 °C.

Usually melting point stands for the temperature, or range, at which the solid turns liquid.

The record behind these values is a melting point compilation (Tetko et al.; mined from patent text by program, amines drawn as free bases though some values may be those of a salt).
